Source: PMC12396409, “Screening and hit evaluation of a microbial metabolite library against the pathogenic Plasmodium falciparum and Toxoplasma gondii parasites” (International Journal for Parasitology: Drugs and Drug …, 2025)
Like-named read-outs stand apart in the source and are kept apart here.

Key:
[1] = test system: P. falciparum 3D7 parasites; test: P. falciparum growth inhibition assay, 1-cycle (72 h treatment), SYBR DNA staining (library screen at 2 μg/mL and dose-response); type: cell-based, Plasmodium falciparum; details: 72 h; for activity at 2 µg/mL: Plasmodium falciparum
[2] = test system: T. gondii RH strain (RH-Tub-eYFP) tachyzoites; test: microbe, parasite or virus in culture; type: cell-based, Toxoplasma gondii; details: 72 h, 72 h; for percent parasite growth at 2 µg/mL: Toxoplasma gondii
[3] = test system: P. falciparum 3D7 parasites; test: P. falciparum growth inhibition assay, 2-cycle (120 h treatment), delayed-death screen and dose-response; type: cell-based, Plasmodium falciparum; details: 120 h; for activity at 2 µg/mL: Plasmodium falciparum
[4] = 3D7, 72 h, P. falciparum, parasite screen 2 μg/mL, % growth, replicate 1, read-out: Pf_72h_%Growth_Rep1
[5] = 3D7, 72 h, P. falciparum, parasite screen 2 μg/mL, % growth, replicate 2, read-out: Pf_72h_%Growth_Rep2
[6] = T. gondii, parasite screen 2 μg/mL, % growth, replicate 1, read-out: Tg_72h_%Growth_Rep1
[7] = T. gondii, parasite screen 2 μg/mL, % growth, replicate 2, read-out: Tg_72h_%Growth_Rep2
[8] = 3D7, 120 h, P. falciparum, parasite screen 2 μg/mL, % growth, replicate 1, read-out: Pf_120h_%Growth_Rep1
[9] = 3D7, 120 h, P. falciparum, parasite screen 2 μg/mL, % growth, replicate 2, read-out: Pf_120h_%Growth_Rep2
[10] = T. gondii, screen at 2 μg/mL, replicate 1, read-out: Tg_72h_%Growth_Rep1
[11] = T. gondii, screen at 2 μg/mL, replicate 2, read-out: Tg_72h_%Growth_Rep2
[12] = library screen at 2 μg/mL, % growth, replicate 1
[13] = library screen at 2 μg/mL, % growth, replicate 2
[14] = P. falciparum, parasite screen 2 μg/mL, % growth, replicate 1
[15] = P. falciparum, parasite screen 2 μg/mL, % growth, replicate 2
[16] = P. falciparum, screen at 2 μg/mL, replicate 1
[17] = P. falciparum, screen at 2 μg/mL, replicate 2

With `CSC[S@+]([O-])C[C@H](CO)NC(=O)/C=C/c1c(C)[nH]c(=O)[nH]c1=O` [Sparsomycin] the activity at 2 µg/mL [1, 4] was 4.3%, the activity at 2 µg/mL [1, 5] was -1% and the percent parasite growth at 2 µg/mL [2, 6] was 2.81%. The percent parasite growth at 2 µg/mL [2, 7] was 27.9%, the activity at 2 µg/mL [3, 8] was 10.1% and the activity at 2 µg/mL [3, 9] was -13.2%.

`CN(C)c1cc(NC(=O)CNC(C)(C)C)c(O)c2c1C[C@H]1C[C@H]3[C@H](N(C)C)C(O)=C(C(N)=O)C(=O)[C@@]3(O)C(O)=C1C2=O` [Tigecycline] was tested, and the activity at 2 µg/mL ([1]; 3D7, P. falciparum, screen at 2 μg/mL, replicate 1, read-out: Pf_72h_%Growth_Rep1) was 88.2%, the activity at 2 µg/mL ([1]; 3D7, P. falciparum, screen at 2 μg/mL, replicate 2, read-out: Pf_72h_%Growth_Rep2) was 87.6% and the percent parasite growth at 2 µg/mL [2, 10] was 144%. It also gave a percent parasite growth at 2 µg/mL [2, 11] of 97%, an activity at 2 µg/mL ([3]; 3D7, P. falciparum, screen at 2 μg/mL, replicate 1, read-out: Pf_120h_%Growth_Rep1) of 106% and an activity at 2 µg/mL ([3]; 3D7, P. falciparum, screen at 2 μg/mL, replicate 2, read-out: Pf_120h_%Growth_Rep2) of 93.4%.

`CCCC[C@]1([C@H](/C=C/C(C)=C/C(=O)O)OC(=O)CCC(=O)O)CC[C@]2(CC[C@H](C)[C@@H](C/C=C(C)/C=C/[C@H](O)[C@@H](C)/C=C/C(=O)O)O2)O1` [Reveromycin B] was tested, and the activity at 2 µg/mL [1, 4] was 89%, the activity at 2 µg/mL [1, 5] was 114% and the percent parasite growth at 2 µg/mL [2, 6] was 139%. It also gave a percent parasite growth at 2 µg/mL [2, 7] of 87.7%, an activity at 2 µg/mL [3, 8] of 78.2% and an activity at 2 µg/mL [3, 9] of 133%.

Compound `CC(C)=C[C@H]1C[C@H](C)[C@]2(CC[C@]3(C)C[C@@H]4C(C)=CC(=O)[C@H]4/C(C=O)=C\C[C@H]32)O1` [Anhydroepiophiobolin A] has a Pf_72h_%Growth_Rep1 [1, 12] of 2.50%, a Pf_72h_%Growth_Rep2 [1, 13] of 3.83% and a Tg_72h_%Growth_Rep1 [2, 12] of 120.33%. The Tg_72h_%Growth_Rep2 [2, 13] was 104.77%, the Pf_120h_%Growth_Rep1 [3, 12] was -5.12% and the Pf_120h_%Growth_Rep2 [3, 13] was 6.51%.

`CO[C@H]1C[C@H](O[C@@H]2/C(C)=C/C[C@@H]3C[C@@H](C[C@]4(C=C[C@H](C)[C@@H](C5CCCCC5)O4)O3)OC(=O)[C@@H]3C=C(C)[C@@H](O)[C@H]4OC/C(=C\C=C\[C@@H]2C)[C@]43O)O[C@@H](C)[C@@H]1O` [Doramectin monosaccharide] showed a Pf_72h_%Growth_Rep1 [1, 12] of 77.72%, a Pf_72h_%Growth_Rep2 [1, 13] of 82.97% and a Tg_72h_%Growth_Rep1 [2, 12] of 100.60%. For the same compound, the Tg_72h_%Growth_Rep2 [2, 13] was 107.16%, the Pf_120h_%Growth_Rep1 [3, 12] was 94.58% and the Pf_120h_%Growth_Rep2 [3, 13] was 82.00%.

For `C/C=C/c1cc2c(c(=O)o1)[C@H](O)[C@@H](O)[C@H](C)O2` [Radicinol], the Pf_72h_%Growth_Rep1 [1, 14] was 83.85%, the Pf_72h_%Growth_Rep2 [1, 15] was 102.30% and the Tg_72h_%Growth_Rep1 ([2]; T. gondii, parasite screen 2 μg/mL, % growth, replicate 1) was 118.35%. The Tg_72h_%Growth_Rep2 ([2]; T. gondii, parasite screen 2 μg/mL, % growth, replicate 2) was 83.89%, the Pf_120h_%Growth_Rep1 [3, 14] was 82.58% and the Pf_120h_%Growth_Rep2 [3, 15] was 123.93%.

`C[C@H]1C(=O)N2c3ccccc3[C@@]3(O)C[C@@H](n4cnc5ccccc5c4=O)C(=O)N1[C@@H]23` [Chaetominine] gave a Pf_72h_%Growth_Rep1 [1, 16] of 81.47%, a Pf_72h_%Growth_Rep2 [1, 17] of 84.79% and a Tg_72h_%Growth_Rep1 ([2]; T. gondii, screen at 2 μg/mL, replicate 1) of 140.61%. It also gave a Tg_72h_%Growth_Rep2 ([2]; T. gondii, screen at 2 μg/mL, replicate 2) of 97.41%, a Pf_120h_%Growth_Rep1 [3, 16] of 101.17% and a Pf_120h_%Growth_Rep2 [3, 17] of 95.94%.

For `CO[C@@H]1[C@H](O)C[C@@H](O[C@@H]2C[C@H](Oc3cc4cc5c(c(O)c4c(O)c3C)C(=O)[C@@H](O[C@H]3C[C@@H](O[C@H]4C[C@@H](O[C@H]6C[C@](C)(O)[C@@H](OC(C)=O)[C@H](C)O6)[C@H](O)[C@@H](C)O4)[C@H](O)[C@@H](C)O3)[C@H]([C@H](OC)C(=O)[C@@H](O)[C@@H](C)O)C5)O[C@H](C)[C@@H]2OC(C)=O)O[C@@H]1C` [Chromomycin A3], the activity at 2 µg/mL ([1]; 3D7, 72 h, P. falciparum, screen at 2 μg/mL, replicate 1, read-out: Pf_72h_%Growth_Rep1) was -1.98%, the activity at 2 µg/mL ([1]; 3D7, 72 h, P. falciparum, screen at 2 μg/mL, replicate 2, read-out: Pf_72h_%Growth_Rep2) was 0.17% and the percent parasite growth at 2 µg/mL [2, 10] was 1.51%. For the same compound, the percent parasite growth at 2 µg/mL [2, 11] was 1.99%, the activity at 2 µg/mL ([3]; 3D7, 120 h, P. falciparum, screen at 2 μg/mL, replicate 1, read-out: Pf_120h_%Growth_Rep1) was 2.76% and the activity at 2 µg/mL ([3]; 3D7, 120 h, P. falciparum, screen at 2 μg/mL, replicate 2, read-out: Pf_120h_%Growth_Rep2) was -4.9%.
